pIC50: −log10 of the molar value.
What was measured:
[1] = test system: LN229; experiment: cells; assay type: cell-based; conditions: Homo sapiens, LN-229, read-out: IC50 (in vitro toxicity)
[2] = test system: U251 MG; experiment: Orthotopic glioblastoma study (Example 84); assay type: in vivo, mouse; conditions: 5 mg/kg and 10 mg/kg IV once weekly for 4 weeks
Experimental: (§1) The efficacy of compounds provided by the present disclosure was evaluated using an orthotopic luciferase human glioblastoma model—U251 MG. Human glioblastoma cells were intracolonically injected (3×10^5 cells/3 μL) into athymic mice (female, 4-5 weeks-old, nu/un homozygous). Treatment began when the BLI reached a log-phase growth, at about 14 days after injection. Ten mice were assigned to each arm of the study. The mice were dosed with vehicle (IP, once weekly for 4 weeks), compound (5) (5 mg/kg, IV once weekly for 4 weeks), compound (5) (10 mg/kg, IV once weekly for 4 weeks), compound (40) (10 mg/kg, IV once weekly for 4 weeks), or compound (50) (20 mg/kg, IV single dose). The tumor volume was measured using bioluminescence imaging.

[3] = test system: D283; experiment: cells; assay type: cell-based; conditions: D283, read-out: IC50 (in vitro toxicity)
[4] = test system: KMS34; experiment: cells; assay type: cell-based; conditions: KMS-34, read-out: IC50 (in vitro toxicity)
[5] = test system: MV411; experiment: cells; assay type: cell-based; conditions: Homo sapiens, MV4-11, read-out: IC50 (in vitro toxicity)
[6] = test system: RPMI8266; experiment: cells; assay type: cell-based; conditions: RPMI8266, read-out: IC50 (in vitro toxicity)
[7] = test system: DBRTG; experiment: cells; assay type: cell-based; conditions: read-out: IC50 (in vitro toxicity)
[8] = test system: G55; experiment: cells; assay type: cell-based; conditions: read-out: IC50 (in vitro toxicity)
[9] = test system: U251 MG; experiment: Orthotopic glioblastoma study (Example 83); assay type: in vivo, mouse; conditions: athymic mice, 10 mg/kg IP once weekly for 4 weeks
Experimental: as §1, with “weeks), temozolomide (TMZ, 4 mg/kg, OG once daily for 5 days), or” for “weeks),”, “(5) (10” for “(5) (5”, “mg/kg, IP” for “mg/kg, IV”, “4 weeks).” for “4 weeks), compound (5) (10 mg/kg, IV once weekly for 4 weeks), compound (40) (10 mg/kg, IV once weekly for 4 weeks), or compound (50) (20 mg/kg, IV single dose).”

[10] = test system: MDA-MB-231; experiment: Breast cancer xenograft study, IP dosing; assay type: in vivo, mouse
Experimental: The efficacy of compounds provided by the present disclosure was evaluated on a triple negative breast cancer xenograft model—MDA-MB-231. The tumors were implanted into mice and the study was initiated after the volume of the tumors was 140 mm^3. The animals were IP dosed once a week or 3 times per week for 3 weeks with either vehicle or 1.25 mg/kg, 2.5 mg/kg, or 5 mg/kg of compound (5). The tumor volume, body weight, white blood cell count, and granulocyte count were determined during the study and 20 days after the final dose was administered. […] Tumor growth remained about 90% suppressed 20 days post-dosing following the 5 mg/kg treatment regimens.

[11] = test system: PC3; experiment: cells; assay type: cell-based; conditions: Homo sapiens, PC-3, read-out: IC50 (in vitro toxicity)
[12] = test system: U266; experiment: cells; assay type: cell-based; conditions: Homo sapiens, U-266, read-out: IC50 (in vitro toxicity)
[13] = test system: LLCPK cells conditionally expressing hLAT1

For `Cc1ccc(N(CCCl)CCCl)cc1C[C@H](N)CC(=O)O` [Compound 5, (3S)-3-Amino-4-[5-[bis(2-chloroethyl)amino]-2-methyl-phenyl]butanoic Acid], the pIC50 [1] was > 4.00, the “glioblastoma tumor growth (bioluminescence imaging)” value [2] was “dose-dependent suppression of glioblastoma tumor growth” and the pIC50 [3] was > 4.00. The pIC50 [4] was < 4.00, the pIC50 [5] was > 4.00 and the pIC50 [6] was < 4.00. The pIC50 [7] was > 4.00, the pIC50 [8] was > 4.00 and the “crossing of the BBB” value [9] was “crossed the BBB”. The “glioblastoma tumor growth (bioluminescence imaging)” value [9] was “suppressed glioblastoma tumor growth”, the tumor growth post-treatment ([10]; 1.25 mg/kg and 2.5 mg/kg regimens, IP) was “demonstrated a dose response” and the “growth of the tumors” value ([10]; 2.5 mg/kg and 5 mg/kg dosing regimens, IP once a week or 3 times per week for 3 weeks) was “nearly completely suppressed”. The “tumor growth suppression 20 days post-dosing” value ([10]; 5 mg/kg treatment regimens, IP) was “about 90%”, the animal body weights ([10]; all dosing regimens) was “increased” and the “white blood cell count and granulocyte count” value ([10]; during and following treatment, all dosing regimens) was “remained within normal range”. For the same compound, the pIC50 [11] was > 4.00, the pIC50 [12] was > 4.00 and the “IC50, S isomer compared with R isomer” value [13] was “significantly less than the IC50 of the R isomer”.
